Measured values taken from patent US10301280B2 (Plexxikon Inc., priority 2012, dated 2019).

How the values were obtained:
c-kit mutant D816V = c-kit mutant D816V (Homo sapiens (Human), UniProt P10721, D816V/DEL694-753); test: c-Kit mutant D816V biochemical assay (AlphaScreen); conditions: c-kit D816V biochemical inhibitory activity
How it was run: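 His-tagged c-Kit D816V kinase domain (551-934, Δ694-753, E. coli) phosphorylating 30 nM biotin-(E4Y)10 at 10 μM ATP in HEPES pH 7.2 with Mg/Mn, 5% DMSO, 30 min at room temperature. PY20-acceptor/streptavidin-donor AlphaScreen detection after EDTA stop. IC50 from 8-point 1:3 titration.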

[1] = test system: BaF3-FL KIT D816V or BaF3-FL KIT V560G/D816V cell line; test: Cell-based assays of c-Kit mutant kinase activity (cell growth, ATPlite); conditions: at least one of the c-kit cell assays of Example 26
How it was run: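 IC50 derived from ATP-content luminescence (ATPlite) after three-day compound exposure at 37° C., 5% CO2. Cells: BaF3 rendered growth-dependent on full-length human KIT D816V or V560G/D816V, 1×10^4 per well, RPMI plus 10% FBS; 8 points, 1:3 steps, maximum 10 μM final, 0.2% DMSO.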

Chain of c-kit mutant D816V (P10721 other isoform, or with tags, fused parts or gaps D816V/del 694-753): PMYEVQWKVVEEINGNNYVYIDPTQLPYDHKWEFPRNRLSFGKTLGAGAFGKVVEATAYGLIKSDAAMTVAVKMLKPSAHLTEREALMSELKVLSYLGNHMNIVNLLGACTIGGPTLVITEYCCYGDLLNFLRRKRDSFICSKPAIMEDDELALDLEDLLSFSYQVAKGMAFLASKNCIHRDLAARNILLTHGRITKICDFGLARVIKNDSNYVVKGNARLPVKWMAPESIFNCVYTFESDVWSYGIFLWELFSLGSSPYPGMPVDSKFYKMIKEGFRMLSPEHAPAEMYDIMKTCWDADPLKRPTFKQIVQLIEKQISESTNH

Question: How did the IC50 (c-kit mutant D816V) turn out when `Cc1n[nH]c(C(=O)Nc2cnc3[nH]c(-c4cccc(C(=O)O)c4C)cc3c2)c1C` [P-2297, 3-[5-[(3,4-dimethyl-1H-pyrazole-5-carbonyl)amino]-1H-pyrrolo[2,3-b]pyridin-2-yl]-2-methyl-benzoic acid] was run?
Answer: 0.0001 to 1 µM

Question: What about the IC50 [1] of the same compound?
Answer: < 10 µM

Question: Which IC50 (c-kit mutant D816V) does the source give for `Cc1n[nH]c(C(=O)Nc2cnc(Nc3cccc(NS(=O)(=O)c4ccccc4)c3)nc2)c1C` [P-2053, N-[2-[3-(benzenesulfonamido)anilino]pyrimidin-5-yl]-3,4-dimethyl-1H-pyrazole-5-carboxamide] here?
Answer: 0.0001 to 1 µM

Question: What about the IC50 [1] of the same compound?
Answer: < 10 µM

Question: What does the source list for `Cc1cc(-c2cc3cc(NC(=O)c4[nH]nc(C)c4C)cnc3[nH]2)cnc1C` [P-2282, N-[2-(5,6-dimethyl-3-pyridyl)-1H-pyrrolo[2,3-b]pyridin-5-yl]-3,4-dimethyl-1H-pyrazole-5-carboxamide]?
Answer: IC50 (c-kit mutant D816V): 0.0001 to 1 µM; IC50 [1]: < 10 µM

Question: How did the IC50 (c-kit mutant D816V) turn out when `Cc1cc(C(=O)Nc2cnc3[nH]c(C4=CCN(C(=O)N5CCOCC5)CC4)cc3c2)n[nH]1` [P-2031, 5-methyl-N-[2-[1-(morpholine-4-carbonyl)-3,6-dihydro-2H-pyridin-4-yl]-1H-pyrrolo[2,3-b]pyridin-5-yl]-1H-pyrazole-3-carboxamide] was run?
Answer: 0.0001 to 1 µM

Question: And the IC50 [1]?
Answer: < 10 µM

Question: `Cc1cc(C(=O)Nc2cnc3[nH]c(-c4ccc(F)cc4)cc3c2)[nH]n1` [P-2019, N-[2-(4-fluorophenyl)-1H-pyrrolo[2,3-b]pyridin-5-yl]-3-methyl-1H-pyrazole-5-carboxamide] was tested. Which IC50 (c-kit mutant D816V) did it give?
Answer: 0.0001 to 1 µM

Question: What about the IC50 [1] of the same compound?
Answer: < 10 µM

Question: Which results are given for `Cc1cccnc1C(=O)Nc1cnc2[nH]c(-c3ccccc3)cc2c1` [P-2016, 3-methyl-N-(2-phenyl-1H-pyrrolo[2,3-b]pyridin-5-yl)pyridine-2-carboxamide]?
Answer: IC50 (c-kit mutant D816V): 1 to 10 µM; IC50 [1]: < 10 µM

Question: What does the source list for `Cc1n[nH]c(C(=O)Nc2cnc3[nH]c(-c4cnccc4C(N)=O)cc3c2)c1C` [P-2272, 3-[5-[(3,4-dimethyl-1H-pyrazole-5-carbonyl)amino]-1H-pyrrolo[2,3-b]pyridin-2-yl]pyridine-4-carboxamide]?
Answer: IC50 (c-kit mutant D816V): 0.0001 to 1 µM; IC50 [1]: < 10 µM

Question: `Cc1cc(Cl)ccc1-c1cc2cc(NC(=O)c3[nH]nc(C)c3C)cnc2[nH]1` [P-2277, N-[2-(4-chloro-2-methyl-phenyl)-1H-pyrrolo[2,3-b]pyridin-5-yl]-3,4-dimethyl-1H-pyrazole-5-carboxamide] was tested. Which IC50 (c-kit mutant D816V) did it give?
Answer: 0.0001 to 1 µM

Question: What about the IC50 [1] of the same compound?
Answer: < 10 µM

Question: Which IC50 (c-kit mutant D816V) does the source give for `O=C(Nc1cnc2[nH]c(-c3ccc(F)cc3)cc2c1)c1n[nH]c2c1CCCC2` [P-2047, N-[2-(4-fluorophenyl)-1H-pyrrolo[2,3-b]pyridin-5-yl]-4,5,6,7-tetrahydro-1H-indazole-3-carboxamide] here?
Answer: 0.0001 to 1 µM

Question: And the IC50 [1]?
Answer: < 10 µM

Question: What does the source list for `Cc1n[nH]nc1C(=O)Nc1cnc2[nH]c(-c3ccc(F)cc3)cc2c1` [P-2037, N-[2-(4-fluorophenyl)-1H-pyrrolo[2,3-b]pyridin-5-yl]-5-methyl-2H-triazole-4-carboxamide]?
Answer: IC50 (c-kit mutant D816V): 0.0001 to 1 µM; IC50 [1]: < 10 µM

Question: For `Cc1n[nH]c(C(=O)Nc2cnc3[nH]c(C4=CCN(C(=O)N5CCOCC5)CC4)cc3c2)c1Cl` [P-2036, 4-chloro-3-methyl-N-[2-[1-(morpholine-4-carbonyl)-3,6-dihydro-2H-pyridin-4-yl]-1H-pyrrolo[2,3-b]pyridin-5-yl]-1H-pyrazole-5-carboxamide], which IC50 (c-kit mutant D816V) is on record?
Answer: 0.0001 to 1 µM

Question: And the IC50 [1]?
Answer: < 10 µM

Question: For `Cc1n[nH]c(C(=O)Nc2cnc3[nH]c(-c4cccnc4C(F)(F)F)cc3c2)c1C` [P-2176, 3,4-dimethyl-N-[2-[2-(trifluoromethyl)-3-pyridyl]-1H-pyrrolo[2,3-b]pyridin-5-yl]-1H-pyrazole-5-carboxamide], which IC50 (c-kit mutant D816V) is on record?
Answer: 0.0001 to 1 µM

Question: And the IC50 [1]?
Answer: < 10 µM

Question: `Cc1n[nH]c(C(=O)Nc2cnc3[nH]c(-c4ccnc(C(C)C)c4)cc3c2)c1C` [P-2163, N-[2-(2-isopropyl-4-pyridyl)-1H-pyrrolo[2,3-b]pyridin-5-yl]-3,4-dimethyl-1H-pyrazole-5-carboxamide] was tested. Which IC50 (c-kit mutant D816V) did it give?
Answer: 0.0001 to 1 µM

Question: What about the IC50 [1] of the same compound?
Answer: < 10 µM

Question: For `Cc1n[nH]c(C(=O)Nc2cnc3[nH]c(-c4ccnc5c4OCCO5)cc3c2)c1C` [P-2179, N-[2-(2,3-dihydro-[1,4]dioxino[2,3-b]pyridin-8-yl)-1H-pyrrolo[2,3-b]pyridin-5-yl]-3,4-dimethyl-H-pyrazole-5-carboxamide], which IC50 (c-kit mutant D816V) is on record?
Answer: 0.0001 to 1 µM

Question: What about the IC50 [1] of the same compound?
Answer: < 10 µM

Question: Which IC50 (c-kit mutant D816V) does the source give for `CCc1ccc(-c2cc3cc(NC(=O)c4[nH]nc(C)c4C)cnc3[nH]2)cn1` [P-2178, N-[2-(6-ethyl-3-pyridyl)-1H-pyrrolo[2,3-b]pyridin-5-yl]-3,4-dimethyl-1H-pyrazole-5-carboxamide] here?
Answer: 0.0001 to 1 µM

Question: What about the IC50 [1] of the same compound?
Answer: < 10 µM

Question: What does the source list for `O=C(Nc1cnc2[nH]c(-c3ccccc3)cc2c1)c1ncccc1F` [P-2012, 3-fluoro-N-(2-phenyl-1H-pyrrolo[2,3-b]pyridin-5-yl)pyridine-2-carboxamide]?
Answer: IC50 (c-kit mutant D816V): 1 to 10 µM; IC50 [1]: < 10 µM

Question: How did the IC50 (c-kit mutant D816V) turn out when `Cc1n[nH]c(C(=O)Nc2cnc3[nH]c(-c4ccc(F)c(-c5nn[nH]n5)c4)cc3c2)c1C` [P-2174, N-[2-[4-fluoro-3-(2H-tetrazol-5-yl)phenyl]-1H-pyrrolo[2,3-b]pyridin-5-yl]-3,4-dimethyl-1H-pyrazole-5-carboxamide] was run?
Answer: 0.0001 to 1 µM

Question: And the IC50 [1]?
Answer: < 10 µM

Question: Which results are given for `Cc1n[nH]c(C(=O)Nc2cnc3[nH]c(C4=CCOCC4)cc3c2)c1C` [P-2271, N-[2-(3,6-dihydro-2H-pyran-4-yl)-1H-pyrrolo[2,3-b]pyridin-5-yl]-3,4-dimethyl-1H-pyrazole-5-carboxamide]?
Answer: IC50 (c-kit mutant D816V): 0.0001 to 1 µM; IC50 [1]: < 10 µM

Question: How did the IC50 (c-kit mutant D816V) turn out when `Cc1n[nH]c(C(=O)Nc2cnc3[nH]c(-c4cccc(CC(=O)O)c4)cc3c2)c1C` [P-2293, 2-[3-[5-[(3,4-dimethyl-1H-pyrazole-5-carbonyl)amino]-1H-pyrrolo[2,3-b]pyridin-2-yl]phenyl]acetic acid] was run?
Answer: 0.0001 to 1 µM

Question: And the IC50 [1]?
Answer: < 10 µM

Question: Which results are given for `Cc1cc(-c2cc3cc(NC(=O)c4[nH]nc(C)c4C)cnc3[nH]2)ccc1C(=O)O` [P-2296, 4-[5-[(3,4-dimethyl-1H-pyrazole-5-carbonyl)amino]-1H-pyrrolo[2,3-b]pyridin-2-yl]-2-methyl-benzoic acid]?
Answer: IC50 (c-kit mutant D816V): 0.0001 to 1 µM; IC50 [1]: < 10 µM

Question: Which results are given for `Cc1n[nH]c(C(=O)Nc2cnc3[nH]c(-c4ccncc4Cl)cc3c2)c1C` [P-2278, N-[2-(3-chloro-4-pyridyl)-H-pyrrolo[2,3-b]pyridin-5-yl]-3,4-dimethyl-1H-pyrazole-5-carboxamide]?
Answer: IC50 (c-kit mutant D816V): 0.0001 to 1 µM; IC50 [1]: < 10 µM

Question: How did the IC50 (c-kit mutant D816V) turn out when `Cc1cc(C(=O)Nc2cnc3[nH]c(N4CCOCC4)cc3c2)[nH]n1` [P-2058, 3-methyl-N-(2-morpholino-1H-pyrrolo[2,3-b]pyridin-5-yl)-1H-pyrazole-5-carboxamide] was run?
Answer: 0.0001 to 1 µM

Question: What about the IC50 [1] of the same compound?
Answer: < 10 µM

Question: How did the IC50 (c-kit mutant D816V) turn out when `O=C(Nc1cnc2[nH]c(-c3ccccc3)cc2c1)c1cccc2n[nH]cc12` [P-2289, N-(2-phenyl-1H-pyrrolo[2,3-b]pyridin-5-yl)-2H-indazole-4-carboxamide] was run?
Answer: 1 to 10 µM

Question: What about the IC50 [1] of the same compound?
Answer: < 10 µM

Question: For `Cc1n[nH]c(C(=O)Nc2cnc3[nH]c(-c4ccnc(N5CCN(C(=O)C6CC6)CC5)c4)cc3c2)c1C` [P-2187, N-[2-[2-[4-(cyclopropanecarbonyl)piperazin-1-yl]-4-pyridyl]-1H-pyrrolo[2,3-b]pyridin-5-yl]-3,4-dimethyl-1H-pyrazole-5-carboxamide], which IC50 (c-kit mutant D816V) is on record?
Answer: 0.0001 to 1 µM

Question: What about the IC50 [1] of the same compound?
Answer: < 10 µM

Question: How did the IC50 (c-kit mutant D816V) turn out when `CC(=O)Nc1cccc(C(=O)Nc2cnc3[nH]c(-c4ccc(F)cc4)cc3c2)c1` [P-2026, 3-acetamido-N-[2-(4-fluorophenyl)-1H-pyrrolo[2,3-b]pyridin-5-yl]benzamide] was run?
Answer: 10 to 200 µM

Question: What about the IC50 [1] of the same compound?
Answer: < 10 µM
